The assay concerns the target T1, ΔIBB-h-importin-α1 (Homo sapiens, UniProt P52292, DEL11-54).
T1 construct: IBB domain-truncated h-importin-α1 (Δ-h-importin-α1) (1–10, 55–529); GST (N, cleaved yes); His6 (C); made in house; host or cells: E. coli BL21 (DE3) Codonplus-RIL
The assay can be described thus: ITC binding of NLS peptides to ΔIBB-h-importin-α1.

No end group written: not given here.

KRPAATKKAGQAKKKK [nucleoplasmin NLS] displayed a dissociation constant (Kd) of 140 ± 50 nM.

Values taken from publication PMC4319847 (PLoS ONE, 2015).
